# Measurements published in PMC3478670 (Journal of medicinal chemistry, 2012).
# System: HIV-1NL4-3
# Test: HIV-1NL4-3 replication inhibition assay in MT-4 lymphocytes
# Format: cell-based
# Conditions: HIV-1NL4-3 infected MT-4 cells
row,SMILES,anti-HIV replication activity (in words)
1,"C=C(C)[C@@H]1CC[C@]2(C(=O)OCOC)CC[C@]3(C)[C@H](CC[C@@H]4[C@@]5(C)CC[C@H](O)C(C)(C)[C@@H]5CC[C@]43C)[C@@H]12 [Compound 7, Methoxymethyl 3β-hydroxy-lup-20(29)-en-28-oate]",did not show anti-HIV activity
2,"C=C(C)[C@@H]1CC[C@]2(C(=O)OCOCCOC)CC[C@]3(C)[C@H](CC[C@@H]4[C@@]5(C)CC[C@H](OCOCCOC)C(C)(C)[C@@H]5CC[C@]43C)[C@@H]12 [Compound 4, Methoxyethoxymethyl 3β-methoxyethoxymethoxy-lup-20(29)-en-28-oate]",did not show anti-HIV activity
3,"C=C(C)[C@@H]1CC[C@]2(C(=O)O)CC[C@]3(C)[C@H](CC[C@@H]4[C@@]5(C)CC[C@H](OCOCCOC)C(C)(C)[C@@H]5CC[C@]43C)[C@@H]12 [Compound 6, 3β-Methoxyethoxymethoxy-betulinic acid]",did not show anti-HIV activity
4,"C=C(C)[C@@H]1CC[C@]2(C(=O)OCOCCOC)CC[C@]3(C)[C@H](CC[C@@H]4[C@@]5(C)CC[C@H](O)C(C)(C)[C@@H]5CC[C@]43C)[C@@H]12 [Compound 8, Methoxyethoxymethyl 3β-hydroxy-lup-20(29)-en-28-oate]",did not show anti-HIV activity
5,"C=C(C)[C@@H]1CC[C@]2(C(=O)OCOC)CC[C@]3(C)[C@H](CC[C@@H]4[C@@]5(C)CC[C@H](OCOC)C(C)(C)[C@@H]5CC[C@]43C)[C@@H]12 [Compound 3, Methoxymethyl 3β-methoxymethoxy-lup-20(29)-en-28-oate]",did not show anti-HIV activity
6,"C=C(C)[C@@H]1CC[C@]2(C(=O)O)CC[C@]3(C)[C@H](CC[C@@H]4[C@@]5(C)CC[C@H](OCOC)C(C)(C)[C@@H]5CC[C@]43C)[C@@H]12 [Compound 5, 3β-Methoxymethoxy-betulinic acid]",did not show anti-HIV activity
7,"C=C(C)[C@@H]1CC[C@]2(C(=O)OCCCCCCCC)CC[C@]3(C)[C@H](CC[C@@H]4[C@@]5(C)CC[C@H](OC(=O)CC(C)(C)C(=O)O)C(C)(C)[C@@H]5CC[C@]43C)[C@@H]12 [Compound 23, Octyl 3β-O-(3′,3′-dimethylsuccinyl)-lup-20(29)-en-28-oate]",no inhibition of HIV-1 replication

# System: not listed separately
# Test: in vitro
# Conditions: human, pooled human liver microsomes, pH 7.4
row,SMILES,microsomal CLint at 1 μM
1,"C=C(C)[C@@H]1CC[C@]2(C(=O)N3CCN(CCCCC(=O)O)CC3)CC[C@]3(C)[C@H](CC[C@@H]4[C@@]5(C)CC[C@H](OC(=O)CC(C)(C)C(=O)O)C(C)(C)[C@@H]5CC[C@]43C)[C@@H]12 [Compound 41, N-[3β-O-(3′,3′-Dimethylsuccinyl)-lup-20(29)-en-28-oyl]-5-piperazinepentanoic acid]",2.1 µL/min/mg
